Data: US20040034006A1, “Method of inactivating viral particles in a blood product” (priority 2000, published 2004)
Where “and” joins values, the source holds several entries; their conditions need not be identical. Identical values can stand only once.

Legend:
[1] = system: P. aeruginosa; experiment: photodynamic inactivation of bacteria with varying amounts of light; type: cell-based; settings: 25 uM; dependent on amount of light (kJ/m^2); drops from 100%; FIG. 5
[2] = system: S. aureus; experiment: as above; type: cell-based; settings: 25 uM; dependent on amount of light (kJ/m^2); drops from 100%; FIG. 5
[3] = system: red blood cells; experiment: in vivo survival of 51Cr-labeled RBC photodynamically treated and re-infused; settings: one value per monkey (BB26, CO33)

SMILES: C[n+]1ccc(-c2c3nc(c(-c4cc[n+](C)cc4)c4ccc([nH]4)c(-c4cc[n+](C)cc4)c4nc(c(-c5ccccc5)c5ccc2[nH]5)C=C4)C=C3)cc1.[Cl-].[Cl-].[Cl-] [Sylsens, mono-phenyl-tri-(N-methyl-4-pyridyl)-porphyrin chloride]
- inactivation of bacteria, percentage remaining [1]: ≤ 0.001%
- inactivation of bacteria, percentage remaining [2]: ≤ 0.001%
- recovery (%) of red blood cells 24 h after re-infusion ([3]; Treated I: re-infused immediately after treatment): 75% and 102%
- recovery (%) of red blood cells 24 h after re-infusion ([3]; Treated II: re-infused after 5 weeks of storage after treatment): 71% and 72%
